Source: patent US11109593B2, “Isoxazolin-5-one derivative and herbicide containing same as active ingredient” (HOKKO CHEMICAL INDUSTRY CO., LTD., priority 2017, dated 2021)

system: Echinochloa crus-galli; assay: Test Example 4: herbicidal effect test by treatment of leave and stem in dry field farming (seven days after seeding); format: in vivo; details: 120 g/10a active ingredient; emulsion sprayed seven days after seeding; evaluated 14 days after treatment
Method: (§1) This test was conducted in a double system per one agent solution concentration area, and the herbicidal rates (%) were determined by the following equation (Math. 1) on 14 days after the treatment with the agents. Herbicidal Rate (%)={1-(Average Dry Weight (g) of Plant of Treated Area)/(Average Dry Weight (g) of Plant of Untreated Area)}×100 [Math. 1]
(§2) Herbicidal Effect Test by Treatment of Leave and Stem in Dry Field Farming
(§3) Pots with a size of 36 cm^2 were filled with a dry field farming soil (alluvium). The soil of the top layer of 1 cm and seeds of weeds, namely southern crabgrass, Echinochloa crus-galli, Chenopodium album and Amaranthus viridis, 20 seeds each, were evenly mixed, and the top layer was gently pressed. Emulsions prepared using the compounds in Table 6 below according to Formulation Example 5 were diluted with water seven days after seeding, and the water-diluted agent solutions were sprayed to the soil surfaces at a ratio of 100 liters per 10 ares. The converted amount of the applied active ingredient corresponded to 120 g per 10 ares. The herbicidal effects were evaluated by the same standard as that in Test Example 1 on 14 days after the treatment with the agents. […] The compound numbers in Table 6 are the same as those in Table 1 and Table 2 above.

SMILES | herbicidal effect (herbicidal rate), Echinochloa crus-galli
CCOC(=O)N(c1ccccc1Cc1c(C)n(CCSC)oc1=O)S(=O)(=O)C(F)(F)F [Compound 1-620] | 90%
Cc1c(Cc2ccccc2NS(=O)(=O)C(F)(F)F)c(=O)on1CC1(C)CC1 [Compound 1-145] | 90%

system: Chenopodium album; assay: as above; format: in vivo; details: 120 g/10a active ingredient; emulsion sprayed seven days after seeding; evaluated 14 days after treatment
Method: as §1, §2, §3

SMILES | herbicidal effect (herbicidal rate), Chenopodium album
CCOC(=O)N(c1ccccc1Cc1c(C)n(CCSC)oc1=O)S(=O)(=O)C(F)(F)F [Compound 1-620] | 40%
Cc1c(Cc2ccccc2NS(=O)(=O)C(F)(F)F)c(=O)on1CC1(C)CC1 [Compound 1-145] | 40%

system: southern crabgrass; assay: as above; format: in vivo; details: 120 g/10a active ingredient; emulsion sprayed seven days after seeding; evaluated 14 days after treatment
Method: as §1, §2, §3

SMILES | herbicidal effect (herbicidal rate), southern crabgrass
CCOC(=O)N(c1ccccc1Cc1c(C)n(CCSC)oc1=O)S(=O)(=O)C(F)(F)F [Compound 1-620] | 90%
Cc1c(Cc2ccccc2NS(=O)(=O)C(F)(F)F)c(=O)on1CC1(C)CC1 [Compound 1-145] | 50%

system: Amaranthus viridis; assay: as above; format: in vivo; details: 120 g/10a active ingredient; emulsion sprayed seven days after seeding; evaluated 14 days after treatment
Method: as §1, §2, §3

SMILES | herbicidal effect (herbicidal rate), Amaranthus viridis
CCOC(=O)N(c1ccccc1Cc1c(C)n(CCSC)oc1=O)S(=O)(=O)C(F)(F)F [Compound 1-620] | 40%
Cc1c(Cc2ccccc2NS(=O)(=O)C(F)(F)F)c(=O)on1CC1(C)CC1 [Compound 1-145] | 0%

system: Echinochloa crus-galli; assay: Test Example 1: herbicidal effect test by treatment of rice paddy soil (immediately after seeding); format: in vivo; details: 120 g/10a active ingredient, dry weight vs untreated area, 14 days after treatment
Method in brief: (§4)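 Puddled, fertilized (N:P:K=17:17:17) paddy soil in Wagner pots; seeds sown 0–1 cm deep, flooded to about 3 cm. Emulsifiable formulations diluted in water and dropped into the water immediately after seeding at 120 g active ingredient per 10 ares; greenhouse. Herbicidal rate from dry weight vs untreated at 14 days.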

SMILES | Herbicidal rate (%) Echinochloa crus-galli
CCOC(=O)N(c1ccccc1Cc1c(C)n(CCSC)oc1=O)S(=O)(=O)C(F)(F)F [Compound 1-620] | 90%
Cc1c(Cc2ccccc2NS(=O)(=O)C(F)(F)F)c(=O)on1CC1(C)CC1 [Compound 1-145] | 100%

system: broad leaf weeds (Lindernia pyxidaria and Monochoria vaginalis); assay: as above; format: in vivo; details: Lindernia pyxidaria, 120 g/10a active ingredient, dry weight vs untreated area, 14 days after treatment
Method in brief: as §4

SMILES | Herbicidal rate (%) Lindernia pyxidaria
CCOC(=O)N(c1ccccc1Cc1c(C)n(CCSC)oc1=O)S(=O)(=O)C(F)(F)F [Compound 1-620] | 90%
Cc1c(Cc2ccccc2NS(=O)(=O)C(F)(F)F)c(=O)on1CC1(C)CC1 [Compound 1-145] | 100%

same assay, conditions: Monochoria vaginalis, 120 g/10a active ingredient, dry weight vs untreated area, 14 days after treatment

SMILES | Herbicidal rate (%) Monochoria vaginalis
CCOC(=O)N(c1ccccc1Cc1c(C)n(CCSC)oc1=O)S(=O)(=O)C(F)(F)F [Compound 1-620] | 90%
Cc1c(Cc2ccccc2NS(=O)(=O)C(F)(F)F)c(=O)on1CC1(C)CC1 [Compound 1-145] | 100%

system: Scirpus juncoides; assay: as above; format: in vivo; details: 120 g/10a active ingredient, dry weight vs untreated area, 14 days after treatment
Method in brief: as §4

SMILES | Herbicidal rate (%) Scirpus juncoides
CCOC(=O)N(c1ccccc1Cc1c(C)n(CCSC)oc1=O)S(=O)(=O)C(F)(F)F [Compound 1-620] | 90%
Cc1c(Cc2ccccc2NS(=O)(=O)C(F)(F)F)c(=O)on1CC1(C)CC1 [Compound 1-145] | 100%

system: Echinochloa crus-galli; assay: Test Example 3: herbicidal effect test by treatment of dry field farming soil (one day after seeding); format: in vivo; details: 120 g/10a active ingredient, evaluated 14 days after treatment
Method in brief: (§5)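 Seeds (20 each) mixed into top 1 cm of alluvium in pots, surface pressed. One day later, diluted emulsion sprayed onto soil, 100 L/10 a, 120 g a.i./10 a. Dry weight at 14 d vs untreated gave % herbicidal rate; n=2.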

SMILES | herbicidal rate, Echinochloa crus-galli
CCOC(=O)N(c1ccccc1Cc1c(C)n(CCSC)oc1=O)S(=O)(=O)C(F)(F)F [Compound 1-620] | 90%
Cc1c(Cc2ccccc2NS(=O)(=O)C(F)(F)F)c(=O)on1CC1(C)CC1 [Compound 1-145] | 90%

system: Chenopodium album; assay: as above; format: in vivo; details: 120 g/10a active ingredient, evaluated 14 days after treatment
Method in brief: as §5

SMILES | herbicidal rate, Chenopodium album
CCOC(=O)N(c1ccccc1Cc1c(C)n(CCSC)oc1=O)S(=O)(=O)C(F)(F)F [Compound 1-620] | 90%
Cc1c(Cc2ccccc2NS(=O)(=O)C(F)(F)F)c(=O)on1CC1(C)CC1 [Compound 1-145] | 40%

system: southern crabgrass; assay: as above; format: in vivo; details: 120 g/10a active ingredient, evaluated 14 days after treatment
Method in brief: as §5

SMILES | herbicidal rate, southern crabgrass
CCOC(=O)N(c1ccccc1Cc1c(C)n(CCSC)oc1=O)S(=O)(=O)C(F)(F)F [Compound 1-620] | 90%
Cc1c(Cc2ccccc2NS(=O)(=O)C(F)(F)F)c(=O)on1CC1(C)CC1 [Compound 1-145] | 80%

system: Amaranthus viridis; assay: as above; format: in vivo; details: 120 g/10a active ingredient, evaluated 14 days after treatment
Method in brief: as §5

SMILES | herbicidal rate, Amaranthus viridis
CCOC(=O)N(c1ccccc1Cc1c(C)n(CCSC)oc1=O)S(=O)(=O)C(F)(F)F [Compound 1-620] | 90%
Cc1c(Cc2ccccc2NS(=O)(=O)C(F)(F)F)c(=O)on1CC1(C)CC1 [Compound 1-145] | 40%

system: Echinochloa crus-galli; assay: Test Example 2: herbicidal effect test by treatment during growing period in paddy rice cultivation (seven days after seeding); format: in vivo; details: 120 g/10a active ingredient, assessed 14 days after treatment, dry weight vs untreated area
Method in brief: (§6)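 Herbicidal rate = (1 − treated/untreated mean dry weight) × 100, scored 14 days after application, two replicates per rate. Treatment: diluted emulsion dropped onto paddy water seven days after sowing, 120 g active ingredient per 10 ares, in a glass greenhouse.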

SMILES | Herbicidal rate (%) Echinochloa crus-galli
CCOC(=O)N(c1ccccc1Cc1c(C)n(CCSC)oc1=O)S(=O)(=O)C(F)(F)F [Compound 1-620] | 90%
Cc1c(Cc2ccccc2NS(=O)(=O)C(F)(F)F)c(=O)on1CC1(C)CC1 [Compound 1-145] | 90%

system: broad leaf weeds (Lindernia pyxidaria and Monochoria vaginalis); assay: as above; format: in vivo; details: Lindernia pyxidaria, 120 g/10a active ingredient, assessed 14 days after treatment, dry weight vs untreated area
Method in brief: as §6

SMILES | Herbicidal rate (%) Lindernia pyxidaria
CCOC(=O)N(c1ccccc1Cc1c(C)n(CCSC)oc1=O)S(=O)(=O)C(F)(F)F [Compound 1-620] | 90%
Cc1c(Cc2ccccc2NS(=O)(=O)C(F)(F)F)c(=O)on1CC1(C)CC1 [Compound 1-145] | 60%

same assay, conditions: Monochoria vaginalis, 120 g/10a active ingredient, assessed 14 days after treatment, dry weight vs untreated area

SMILES | Herbicidal rate (%) Monochoria vaginalis
CCOC(=O)N(c1ccccc1Cc1c(C)n(CCSC)oc1=O)S(=O)(=O)C(F)(F)F [Compound 1-620] | 90%
Cc1c(Cc2ccccc2NS(=O)(=O)C(F)(F)F)c(=O)on1CC1(C)CC1 [Compound 1-145] | 80%

system: Scirpus juncoides; assay: as above; format: in vivo; details: 120 g/10a active ingredient, assessed 14 days after treatment, dry weight vs untreated area
Method in brief: as §6

SMILES | Herbicidal rate (%) Scirpus juncoides
CCOC(=O)N(c1ccccc1Cc1c(C)n(CCSC)oc1=O)S(=O)(=O)C(F)(F)F [Compound 1-620] | 90%
Cc1c(Cc2ccccc2NS(=O)(=O)C(F)(F)F)c(=O)on1CC1(C)CC1 [Compound 1-145] | 80%
